Assays:
[1] = molecular target: T1, Delta-type opioid receptor (Mus musculus, UniProt P32300); experiment: Inhibitory activity against Opioid receptor delta 1 of (endomorphin 2) in mouse vas deferens was determined
[2] = molecular target: T1, Delta-type opioid receptor; experiment: Inhibitory activity against delta receptor of (endomorphin 2) in mouse vas deferens was determined
[3] = molecular target: T2, Mu-type opioid receptor (Cavia porcellus, UniProt P97266); experiment: In vitro inhibitory activity was determined against Opioid receptor mu 1 in guinea pig ileum
T2 sequence (P97266 whole entry): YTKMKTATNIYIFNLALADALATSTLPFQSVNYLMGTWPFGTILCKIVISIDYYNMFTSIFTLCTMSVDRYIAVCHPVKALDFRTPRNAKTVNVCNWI

[4] = molecular target: Mu-type opioid receptor (Rattus norvegicus, UniProt P33535); experiment: Binding affinity was determined towards Opioid receptor mu 1 in rat brain synaptosomes using [3H]DAMGO as radioligand.
Mu-type opioid receptor (Rattus norvegicus, UniProt P33535), sequence (P33535 whole entry): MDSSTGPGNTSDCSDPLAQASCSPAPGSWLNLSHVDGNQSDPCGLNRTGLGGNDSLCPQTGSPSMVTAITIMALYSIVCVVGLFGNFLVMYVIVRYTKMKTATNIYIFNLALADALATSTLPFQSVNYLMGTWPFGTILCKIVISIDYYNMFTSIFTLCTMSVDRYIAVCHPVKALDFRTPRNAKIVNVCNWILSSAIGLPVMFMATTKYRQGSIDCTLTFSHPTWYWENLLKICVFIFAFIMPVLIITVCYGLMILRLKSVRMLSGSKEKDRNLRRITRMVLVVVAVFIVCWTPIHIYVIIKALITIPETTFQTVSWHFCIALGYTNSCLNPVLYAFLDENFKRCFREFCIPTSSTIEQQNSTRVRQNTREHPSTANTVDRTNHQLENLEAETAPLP

[5] = molecular target: T2, Mu-type opioid receptor; experiment: Inhibitory activity against Opioid receptor mu 1 of (endomorphin 2) in guinea pig ileum was determined
[6] = molecular target: Mu-type opioid receptor (Rattus norvegicus) (UniProt P33535)
Mu-type opioid receptor (Rattus norvegicus), sequence (P33535 whole entry): as above
Description: Selectivity ratio was determined by taking the ratio of Opioid receptor mu 1 to that of Opioid receptor delta 1

[7] = molecular target: T1, Delta-type opioid receptor; experiment: In vitro inhibitory activity was determined against Opioid receptor delta 1 in mouse vas deferens

T1 sequence (P32300 whole entry): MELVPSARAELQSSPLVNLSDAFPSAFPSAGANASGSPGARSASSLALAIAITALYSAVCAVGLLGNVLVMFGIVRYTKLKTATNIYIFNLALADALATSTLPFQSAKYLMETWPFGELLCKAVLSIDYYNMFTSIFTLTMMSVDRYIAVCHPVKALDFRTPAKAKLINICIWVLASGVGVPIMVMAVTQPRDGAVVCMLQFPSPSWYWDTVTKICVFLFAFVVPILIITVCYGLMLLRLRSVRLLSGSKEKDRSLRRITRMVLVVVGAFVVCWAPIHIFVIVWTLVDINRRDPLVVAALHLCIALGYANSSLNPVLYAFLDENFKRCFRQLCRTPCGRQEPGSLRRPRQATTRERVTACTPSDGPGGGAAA

Cc1cccc(C)c1C[C@H](NC(=O)CNC(=O)CNC(=O)[C@@H](N)Cc1c(C)cc(O)cc1C)C(=O)N[C@@H](CC(C)C)C(=O)O
IC50 [1]: > 10 nM
Kb [2]: 2570 nM
IC50 [3]: > 10 nM
Ki [4]: 5.61 nM
Kb [5]: 126 nM
SR [6]: 0.14

Cc1cccc(C)c1C[C@H](NC(=O)CNC(=O)CNC(=O)[C@@H](N)Cc1ccc(O)cc1)C(=O)N[C@@H](CC(C)C)C(=O)O
IC50 [3]: > 10 nM
IC50 [7]: > 10 nM
SR [6]: 0.28

Cc1cc(O)cc(C)c1C[C@H](N)C(=O)NCC(=O)NCC(=O)N[C@@H](Cc1ccccc1)C(=O)N[C@@H](CC(C)C)C(=O)O
IC50 [3]: 0.55 nM
Ki [4]: 0.0068 nM
IC50 [7]: 0.17 nM
SR [6]: 0.22

Cc1cccc(C)c1C[C@@H](NC(=O)CNC(=O)CNC(=O)[C@@H](N)Cc1ccc(O)cc1)C(=O)N[C@@H](CC(C)C)C(=O)O
IC50 [3]: 808 nM
Ki [4]: 1.25 nM
IC50 [7]: 624 nM
SR [6]: 0.07

Cc1cc(O)cc(C)c1C[C@H](N)C(=O)NCC(=O)NCC(=O)N[C@H](Cc1c(C)cccc1C)C(=O)N[C@@H](CC(C)C)C(=O)O
IC50 [3]: 2 nM
Ki [4]: 0.03 nM
IC50 [7]: 1.45 nM
SR [6]: 0.19

Reference: ChEMBL document CHEMBL1134162 (Bioorg Med Chem Lett, 2001)
